From US12180187B2, “1-phenyl-5-azinylpyrazolyl-3-oxyalkyl acids and their use for controlling unwanted plant growth” (BAYER AKTIENGESELLSCHAFT, priority 2019, dated 2024)

Assays:
[1] = tested on: SETVI; experiment: Pre-emergence action against SETVI, 1280 g/ha; type: in vivo, Setaria viridis; details: visual scoring after about 3 weeks vs untreated controls, 100% = plants have died, 0% = like control plants
How it was run: (§1)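 Compound applied as WP or EC in aqueous spray (0.5% additive, 600 L/ha) to the surface of sandy loam covering freshly sown seeds. After about 3 weeks under good greenhouse conditions, damage is given as visual percentage, 100% meaning plant death.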

[2] = tested on: AMARE; experiment: Pre-emergence action at 320 g/ha against AMARE; type: in vivo, Amaranthus retroflexus; details: visual scoring after about 3 weeks vs untreated controls
How it was run: (§2)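 Compounds were sprayed onto soil over sown seeds as emulsions or suspensions with 0.5% additive at a water rate of 600 l/ha. After about 3 weeks in the greenhouse, effect was rated visually as percent (100% = died).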

[3] = tested on: SETVI; experiment: Post-emergence action at 320 g/ha against SETVI; type: in vivo, Setaria viridis; details: visual rating about 3 weeks after treatment vs untreated controls
How it was run: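 Herbicidal effect is scored by eye about 3 weeks after a foliar spray and expressed as percent activity, with untreated plants as 0% and dead plants as 100%. Treatment is applied at the one-leaf stage of greenhouse-grown, soil-sown plants, at a water rate of 600 l/ha containing 0.5% additive.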

[4] = tested on: DIGSA; experiment: Pre-emergence action at 320 g/ha against DIGSA; type: in vivo, Digitaria sanguinalis; details: visual scoring after about 3 weeks vs untreated controls
How it was run: as §2

[5] = tested on: STEME; experiment: Pre-emergence action against STEME, 1280 g/ha; type: in vivo, Stellaria media; details: scored visually after about 3 weeks vs untreated controls (100% = plants have died)
How it was run: as §1

[6] = tested on: MATIN; experiment: Pre-emergence action against MATIN, 1280 g/ha; type: in vivo, Tripleurospermum inodorum (Matricaria inodora); details: scored visually after about 3 weeks vs untreated controls (100% = plants have died)
How it was run: as §1

[7] = tested on: ABUTH; experiment: Post-emergence action against ABUTH, 1.28 kg/ha; type: in vivo, Abutilon theophrasti; details: dosage 1280 g/ha, visual rating about 3 weeks after treatment vs untreated controls (100% = plants died)
How it was run: (§3)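 Spray at one-leaf stage with WP/EC + 0.5% additive, 600 L water/ha. Greenhouse, optimum conditions, ~3 wk. Visual % control vs untreated; 0 = no effect, 100 = dead.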

[8] = tested on: POLCO; experiment: Pre-emergence action at 320 g/ha against POLCO; type: in vivo, Fallopia convolvulus (Polygonum convolvulus); details: visual scoring after about 3 weeks vs untreated controls
How it was run: as §2

[9] = tested on: AMARE; experiment: Pre-emergence action against AMARE, 1280 g/ha; type: in vivo, Amaranthus retroflexus; details: scored visually after about 3 weeks vs untreated controls (100% = plants have died)
How it was run: as §1

[10] = tested on: ECHCG; experiment: Pre-emergence action against ECHCG, 1280 g/ha; type: in vivo, Echinochloa crus-galli; details: visual scoring after about 3 weeks vs untreated controls, 100% = plants have died, 0% = like control plants
How it was run: as §1

[11] = tested on: SETVI; experiment: Pre-emergence action at 320 g/ha against SETVI; type: in vivo, Setaria viridis; details: visual scoring after about 3 weeks vs untreated controls
How it was run: as §2

[12] = tested on: POAAN; experiment: Pre-emergence action against POAAN, 1280 g/ha; type: in vivo, Poa annua; details: visual scoring after about 3 weeks vs untreated controls, 100% = plants have died, 0% = like control plants
How it was run: as §1

[13] = tested on: ALOMY; experiment: Pre-emergence action at 320 g/ha against ALOMY; type: in vivo, Alopecurus myosuroides; details: scored visually after about 3 weeks vs untreated controls (100% = plants have died)
How it was run: as §2

[14] = tested on: POAAN; experiment: Post-emergence action against POAAN, 1.28 kg/ha; type: in vivo, Poa annua; details: dosage 1280 g/ha, visual rating about 3 weeks after treatment vs untreated controls
How it was run: as §3

| SMILES | Pre-emergence action against SETVI [1] | Pre-emergence action against AMARE in % [2] | Post-emergence action against SETVI in % [3] | Pre-emergence action against DIGSA in % [4] | Pre-emergence action against STEME [5] | Pre-emergence action against MATIN [6] | Post-emergence action against ABUTH [7] | Pre-emergence action against POLCO in % [8] | Pre-emergence action against AMARE [9] | Pre-emergence action against ECHCG [10] | Pre-emergence action against SETVI in % [11] | Pre-emergence action against POAAN [12] | Pre-emergence action at 320 g/ha against ALOMY in % [13] | Post-emergence action against POAAN [14] |
| --- | --- | --- | --- | --- | --- | --- | --- | --- | --- | --- | --- | --- | --- | --- |
| COC(=O)CCOC(=O)COc1nn(-c2ccccc2F)c(-c2ccc(F)nc2)c1Br [VII-111] | 100% | 100% | 90% | 100% | 100% | 100% | 90% | 90% | 100% | 100% | 100% | 100% | 100% | 100% |
| COC(=O)[C@@H](C)Oc1nn(-c2cc(F)ccc2F)c(-c2cncc(F)c2)c1C#N [VII-147] | 100% | 100% | 80% | 100% | 100% | 100% | 90% | 100% | 100% | 100% | 100% | 100% | 100% | 100% |
